Reference: ChEMBL document CHEMBL5131454, “Exploratory studies on soluble small molecule CD4 mimics as HIV entry inhibitors” (Bioorg Med Chem, 2022)
In brackets after ≈: the same amount, converted by molar mass.

Experiments:
[1] = (§1) Cytotoxicity against human TZM-bl cells assessed as reduction in cell viability by CellTiter-Glo 2.0 assay; assay type: toxicity, cell-based; conditions: TZM-bl cells
TZM [2] = experiment: as §1; assay type: toxicity, cell-based; conditions: tzm
[3] = Aqueous solubility of the compound in PBS at pH 7.4 at 25 degC; assay type: physicochemical
TZM [4] = experiment: Cytotoxicity against human TZM-bl cells assessed as reduction in cell viability at <100 uM by CellTiter-Glo 2.0 assay; assay type: toxicity, cell-based

Row | solubility [3] [mM] | SMILES | CC50 [1] [µM] | CC50 (TZM [2]) [µM] | Activity (TZM [4])
1 | > 16.4 | N=C(N)NCCCCC(=O)NCCN1CCC(NC(=O)C(=O)Nc2ccc(Cl)cc2)CC12CCCCC2.O=C(O)C(F)(F)F.O=C(O)C(F)(F)F (configuration not stated) |  | 201 | Non-Toxic
2 | > 50 | N=C(N)NCCCCC(=O)NCCN1CCC(NC(=O)C(=O)Nc2cncc(F)c2)CC12CCCCC2.O=C(O)C(F)(F)F.O=C(O)C(F)(F)F.O=C(O)C(F)(F)F (configuration not stated) | > 300 |  | Non-Toxic
3 | > 50 | N=C(N)NCCCCC(=O)NCCN1CCC(NC(=O)C(=O)Nc2cncc(Cl)c2)CC12CCCCC2.O=C(O)C(F)(F)F.O=C(O)C(F)(F)F.O=C(O)C(F)(F)F (configuration not stated) | 279 |  | Non-Toxic
4 | > 50 | N=C(N)NCCCCC(=O)NCCN1CCC(NC(=O)CNc2ccc(Cl)cn2)CC1.O=C(O)C(F)(F)F.O=C(O)C(F)(F)F.O=C(O)C(F)(F)F | > 300 |  | Non-Toxic
5 | > 50 | N=C(N)NCCCCC(=O)NCCN1CCC(NC(=O)C(=O)Nc2ccc(Cl)cn2)CC1.O=C(O)C(F)(F)F.O=C(O)C(F)(F)F.O=C(O)C(F)(F)F | > 300 |  | Non-Toxic

The next lines start with the molecule.

Row | SMILES | solubility [3] [mM] | CC50 [1] [µM] | CC50 (TZM [2]) [µM] | Activity (TZM [4])
6 | CC1(C)CC(NC(=O)C(=O)Nc2ccc(Cl)cc2)CC(C)(C)N1 |  | 177 |  | 
7 | CC1(C)CC(NC(=O)C(=O)Nc2ccc(F)nc2)CC(C)(C)N1 |  | > 300 |  | 
8 | N=C(N)NCCCCC(=O)NCCN1CCC(NC(=O)C(=O)Nc2ccc(Cl)cc2)CC12CCCCC2 (configuration not stated) | 0.47 (≈ 251 µg/mL) |  | > 100 | Non-Toxic
9 | COCCOCCOCCOCCOCCOCCOCCOCCOCCOCCOCCOCCNC(=O)CCC(=O)N[C@@H](CCCNC(=N)N)C(=O)NCCN1CCC(NC(=O)C(=O)Nc2ccc(Cl)cc2)CC12CCCCC2.O=C(O)C(F)(F)F.O=C(O)C(F)(F)F (some centres not stated) | > 13 | > 300 |  | Non-Toxic
10 | N=C(N)NCCCCC(=O)NCCN1CCC(NC(=O)C(=O)Nc2ccc(F)nc2)CC12CCCCC2.O=C(O)C(F)(F)F.O=C(O)C(F)(F)F.O=C(O)C(F)(F)F (configuration not stated) |  | > 100 |  | Non-Toxic
11 | COCCOCCOCCOCCOCCOCCOCCOCCOCCOCCOCCOCCNC(=O)CCC(=O)N[C@@H](CCCNC(=N)N)C(=O)NCCN1CCC(NC(=O)C(=O)Nc2ccc(F)nc2)CC12CCCCC2.O=C(O)C(F)(F)F.O=C(O)C(F)(F)F.O=C(O)C(F)(F)F (some centres not stated) |  | > 100 |  | Non-Toxic
